Reference: ChEMBL document CHEMBL3272031, “Inhibition of dihydrofolate reductase. Structure-activity correlations of quinazolines” (J Med Chem, 1976)

The compounds below were run against Dihydrofolate reductase (Rattus norvegicus) (UniProt Q920D2).

Question: How did the log(1/C) turn out when `Nc1nc(N)c2cc(NC(=O)Cc3cccc(C(F)(F)F)c3)ccc2n1` was run?
Answer: 7.02

Question: `Nc1nc(N)c2cc(Sc3ccc(Cl)c(Cl)c3)ccc2n1` was tested. Which log(1/C) did it give?
Answer: 7.96

Question: With `Nc1nc(O)c2cc([S+]([O-])c3ccc4ccccc4c3)ccc2n1` (stereo unspecified) as the compound, how does the log(1/C) read?
Answer: 7.38

Question: Which log(1/C) does the source give for `CC(=O)Nc1nc(O)c2cc(S(=O)(=O)c3ccc4ccccc4c3)ccc2n1` here?
Answer: 6.11

Question: `Nc1nc(N)c2c(Cl)cccc2n1` was tested. Which log(1/C) did it give?
Answer: 6.25

Question: `Nc1nc(N)c2c(Cl)c(NC(=O)Cc3cccc(C(F)(F)F)c3)ccc2n1` was tested. Which log(1/C) did it give?
Answer: 7.64

Question: With `Nc1nc(N)c2c(S(=O)(=O)c3ccc(Cl)c(Cl)c3)cccc2n1` as the compound, how does the log(1/C) read?
Answer: 4.24

Question: `Nc1nc(N)c2cc(S(=O)(=O)c3ccc4ccccc4c3)ccc2n1` was tested. Which log(1/C) did it give?
Answer: 8.4

Question: Which log(1/C) does the source give for `Nc1nc(N)c2c(n1)CCCC2` here?
Answer: 5.13

Question: `Nc1ncnc2ccc(Sc3ccc4ccccc4c3)cc12` was tested. Which log(1/C) did it give?
Answer: 4.68

Question: For `Nc1nc(S)c2cc(Sc3ccc4ccccc4c3)ccc2n1`, which log(1/C) is on record?
Answer: 6.64

Question: With `Cc1c(NC(=O)Cc2ccc3ccccc3c2)ccc2nc(N)nc(N)c12` as the compound, how does the log(1/C) read?
Answer: 8.38

Question: With `Nc1nc(N)c2c(Cl)c(NC(=O)COc3ccc4ccccc4c3)ccc2n1` as the compound, how does the log(1/C) read?
Answer: 7.85

Question: With `Nc1nc(N)c2c([S+]([O-])c3ccc4ccccc4c3)cccc2n1` (stereo unspecified) as the compound, how does the log(1/C) read?
Answer: 4.35

Question: Which log(1/C) does the source give for `Cc1c(NC(=O)Cc2cccc(C(F)(F)F)c2)ccc2nc(N)nc(N)c12` here?
Answer: 7.23

Question: With `Nc1ncnc2ccc([S+]([O-])c3ccc4ccccc4c3)cc12` (stereo unspecified) as the compound, how does the log(1/C) read?
Answer: 4.82

Question: Which log(1/C) does the source give for `Nc1nc(O)c2c(Sc3ccc4ccccc4c3)cccc2n1` here?
Answer: 6.15

Question: How did the log(1/C) turn out when `Nc1nc(N)c2cc(NC(=O)CCc3ccc(Cl)cc3)ccc2n1` was run?
Answer: 7.33

Question: `Sc1nc(S)c2cc(Sc3ccc4ccccc4c3)ccc2n1` was tested. Which log(1/C) did it give?
Answer: 5.05

Question: `Nc1nc(N)c2cc(NCc3ccc(Cl)c(Cl)c3)ccc2n1` was tested. Which log(1/C) did it give?
Answer: 7.74

Question: `Cc1c(NC(=O)CSc2ccc3ccccc3c2)ccc2nc(N)nc(N)c12` was tested. Which log(1/C) did it give?
Answer: 8.27

Question: `Cc1c(NC(=O)Cc2ccc(Cl)c(Cl)c2)ccc2nc(N)nc(N)c12` was tested. Which log(1/C) did it give?
Answer: 7.77

Question: For `Nc1nc(N)c2c(Cl)c(N)ccc2n1`, which log(1/C) is on record?
Answer: 6.18

Question: `Oc1nc(S)nc2ccc(Sc3ccc4ccccc4c3)cc12` was tested. Which log(1/C) did it give?
Answer: 5

Question: `Nc1nc(N)c2c(Cl)c(NC(=O)Cc3ccc(Cl)cc3)ccc2n1` was tested. Which log(1/C) did it give?
Answer: 7.92

Question: With `Cc1c(NC(=O)Cc2ccc(Br)cc2)ccc2nc(N)nc(N)c12` as the compound, how does the log(1/C) read?
Answer: 7.49

Question: `Nc1nc(N)c2c(CSc3ccc(Cl)cc3)cccc2n1` was tested. Which log(1/C) did it give?
Answer: 7.7

Question: For `Nc1nc(N)c2c(Cl)c(Br)ccc2n1`, which log(1/C) is on record?
Answer: 7

Question: `Nc1nc(N)c2cc(Sc3cccc(C(F)(F)F)c3)ccc2n1` was tested. Which log(1/C) did it give?
Answer: 7.44

Question: `Cc1ccc2nc(N)nc(O)c2c1` was tested. Which log(1/C) did it give?
Answer: 4.44

Question: How did the log(1/C) turn out when `Nc1nc(N)c2c(S(=O)(=O)c3ccc4ccccc4c3)cccc2n1` was run?
Answer: 4.82

Question: `Cc1c(NC(=O)Cc2cccc(Br)c2)ccc2nc(N)nc(N)c12` was tested. Which log(1/C) did it give?
Answer: 7.47

Question: With `Nc1nc(N)c2c(/C=C\c3ccc4ccccc4c3)cccc2n1` as the compound, how does the log(1/C) read?
Answer: 6.52

Question: For `c1ccc2ncncc2c1`, which log(1/C) is on record?
Answer: 2.26

Question: `Nc1nc(N)c2cc(NC(=O)Cc3ccc4ccccc4c3)ccc2n1` was tested. Which log(1/C) did it give?
Answer: 8.3

Question: Which log(1/C) does the source give for `Nc1nc(S)c2cc(S(=O)(=O)c3ccc4ccccc4c3)ccc2n1` here?
Answer: 7.6

Question: Which log(1/C) does the source give for `Cc1c(NC(=O)C(Sc2ccc3ccccc3c2)C(C)C)ccc2nc(N)nc(N)c12` (stereo unspecified) here?
Answer: 7.68

Question: How did the log(1/C) turn out when `Nc1nc(O)c2c(S(=O)(=O)c3ccc4ccccc4c3)cccc2n1` was run?
Answer: 4.85

Question: `Nc1nc(N)c2c(Cl)c(NC(=O)Cc3ccc(Cl)c(Cl)c3)ccc2n1` was tested. Which log(1/C) did it give?
Answer: 7.62

Question: `Cc1c(NC(=O)CCc2ccc(Cl)cc2)ccc2nc(N)nc(N)c12` was tested. Which log(1/C) did it give?
Answer: 7.48

Question: With `Nc1nc(O)nc2ccc(Sc3ccc4ccccc4c3)cc12` as the compound, how does the log(1/C) read?
Answer: 5.77

Question: With `Nc1nc(N)c2cc(C=O)ccc2n1` as the compound, how does the log(1/C) read?
Answer: 5

Question: With `Nc1nc(N)c2c(Cl)c(NC(=O)CCc3ccc(Cl)cc3)ccc2n1` as the compound, how does the log(1/C) read?
Answer: 7.44

Question: `Nc1nc(N)c2c(CCc3ccc4ccccc4c3)cccc2n1` was tested. Which log(1/C) did it give?
Answer: 7.7

Question: For `Nc1nc(N)c2cc(S(=O)(=O)c3ccc(Cl)c(Cl)c3)ccc2n1`, which log(1/C) is on record?
Answer: 8.05

Question: `O=c1[nH]c(=S)c2cc(Sc3ccc4ccccc4c3)ccc2[nH]1` was tested. Which log(1/C) did it give?
Answer: 5.24

Question: Which log(1/C) does the source give for `Cc1cccc2nc(N)nc(N)c12` here?
Answer: 6.09

Question: Which log(1/C) does the source give for `Nc1nc(O)c2c(n1)CCCC2` here?
Answer: 3.96

Question: With `Nc1nc(N)c2c(Sc3ccc4ccccc4c3)cccc2n1` as the compound, how does the log(1/C) read?
Answer: 6.92

Question: For `Nc1ncnc2ccc(S(=O)(=O)c3ccc4ccccc4c3)cc12`, which log(1/C) is on record?
Answer: 5.47

Question: For `Nc1nc(N)c2cc(CNC(=O)c3ccc4ccccc4c3)ccc2n1`, which log(1/C) is on record?
Answer: 7

Question: `Nc1nc(N)c2c(/C=C/c3ccc4ccccc4c3)cccc2n1` was tested. Which log(1/C) did it give?
Answer: 5.28

Question: For `Nc1nc(S)c2ccccc2n1`, which log(1/C) is on record?
Answer: 4.37

Question: `Nc1ncnc2ccccc12` was tested. Which log(1/C) did it give?
Answer: 3.09

Question: Which log(1/C) does the source give for `Nc1nc(N)c2c(Sc3ccc(Cl)c(Cl)c3)cccc2n1` here?
Answer: 6.8

Question: For `Nc1nc(O)nc2ccccc12`, which log(1/C) is on record?
Answer: 4.02

Question: `NCc1ccc2nc(N)nc(N)c2c1` was tested. Which log(1/C) did it give?
Answer: 5.03

Question: Which log(1/C) does the source give for `Nc1nc(N)c2cc(Sc3ccc4ccccc4c3)ccc2n1` here?
Answer: 8.15

Question: Which log(1/C) does the source give for `Cc1ccc2nc(N)nc(N)c2c1` here?
Answer: 5.66

Question: Which log(1/C) does the source give for `Nc1nc2ccccc2c(=O)[nH]1` here?
Answer: 4.31

Question: Which log(1/C) does the source give for `Nc1nc(O)c2cc(Sc3ccc4ccccc4c3)ccc2n1` here?
Answer: 7.35

Question: With `Nc1nc(O)c2cc(S(=O)(=O)c3ccc(Cl)c(Cl)c3)ccc2n1` as the compound, how does the log(1/C) read?
Answer: 7.12

Question: With `Nc1nc(N)c2c([S+]([O-])c3ccc(Cl)c(Cl)c3)cccc2n1` (stereo unspecified) as the compound, how does the log(1/C) read?
Answer: 4.26

Question: `CC(=O)Nc1nc(O)c2ccccc2n1` was tested. Which log(1/C) did it give?
Answer: 4.28

Question: `Nc1nc(N)c2cc(NC(=O)Cc3ccc(Cl)cc3)ccc2n1` was tested. Which log(1/C) did it give?
Answer: 7.64

Question: With `Nc1nc(N)c2cc(NC(=O)Cc3ccc(Cl)c(Cl)c3)ccc2n1` as the compound, how does the log(1/C) read?
Answer: 7.51

Question: For `Nc1nc(S)nc2ccc(Sc3ccc4ccccc4c3)cc12`, which log(1/C) is on record?
Answer: 5.52

Question: How did the log(1/C) turn out when `Nc1nc(N)c2cc([S+]([O-])c3ccc4ccccc4c3)ccc2n1` (stereo unspecified) was run?
Answer: 8.15

Question: Which log(1/C) does the source give for `CC(C(=O)Nc1ccc2nc(N)nc(N)c2c1Cl)c1ccccc1` (stereo unspecified) here?
Answer: 7.77

Question: With `Nc1ccc2nc(N)nc(N)c2c1` as the compound, how does the log(1/C) read?
Answer: 4.57

Question: Which log(1/C) does the source give for `Nc1nc(N)c2c(Cl)c(NC(=O)Cc3ccc4ccccc4c3)ccc2n1` here?
Answer: 8.3

Question: For `Nc1nc(O)c2cc(Sc3ccc(Cl)c(Cl)c3)ccc2n1`, which log(1/C) is on record?
Answer: 6.92

Question: Which log(1/C) does the source give for `Nc1nc(O)c2cc(S(=O)(=O)c3ccc4ccccc4c3)ccc2n1` here?
Answer: 7.96

Question: `CC1CCc2nc(N)nc(O)c2C1` (stereo unspecified) was tested. Which log(1/C) did it give?
Answer: 4.26

Question: With `Cc1cccc2nc(N)nc(O)c12` as the compound, how does the log(1/C) read?
Answer: 4.8

Question: With `Nc1nc(N)c2c(Cl)c(NC(=O)Cc3cccc(Br)c3)ccc2n1` as the compound, how does the log(1/C) read?
Answer: 8.12

Question: For `Cc1c(NC(=O)COc2ccc3ccccc3c2)ccc2nc(N)nc(N)c12`, which log(1/C) is on record?
Answer: 7.82

Question: How did the log(1/C) turn out when `Nc1nc(N)c2cc(Cl)ccc2n1` was run?
Answer: 5.4

Question: `Nc1nc(N)c2cc(CNC(=O)c3ccc(Cl)c(Cl)c3)ccc2n1` was tested. Which log(1/C) did it give?
Answer: 7

Question: How did the log(1/C) turn out when `O=c1[nH]cnc2ccccc12` was run?
Answer: 3.62

Question: For `Nc1nc(N)c2c(Cl)c(NC(=O)COc3ccc(Cl)c(Cl)c3)ccc2n1`, which log(1/C) is on record?
Answer: 7.64

Question: For `Nc1nc(O)c2ccc(C(F)(F)F)cc2n1`, which log(1/C) is on record?
Answer: 4.35

Question: Which log(1/C) does the source give for `Nc1nc(O)c2c(Cl)cccc2n1` here?
Answer: 4.66

Question: With `Nc1nc(N)c2cc(CNC(=O)c3cccc(C(F)(F)F)c3)ccc2n1` as the compound, how does the log(1/C) read?
Answer: 6.59

Question: How did the log(1/C) turn out when `O=c1[nH]c(=O)c2cc(Sc3ccc4ccccc4c3)ccc2[nH]1` was run?
Answer: 5.07

Question: How did the log(1/C) turn out when `Nc1nc(S)nc2ccccc12` was run?
Answer: 3.72
